Test results published in US20040259861A1, “Medicament inhibiting sodium/calcium exchange system” (priority 2001, published 2004).

Biological target: T1, sodium/calcium exchanger (Rattus norvegicus, UniProt Q01728)
T1 construct: The heart of the rat was excised and perfused with Krebs buffer solution; from tissue; host or cells: isolated Langendorff-perfused rat heart
Test: Langendorff-perfused rat heart, monensin treatment plus ischemia/reperfusion: ventricular total calcium content and recovery in contractile tension
Settings: for Calcium Content: isolated rat heart, monensin 5 μM 10 min, ischemia 15 min, reperfusion 30 min; for effect on decreased recovery in contractile tension (in words) / effect on increased ventricular calcium content (in words): monensin treatment and ischemia/reperfusion, rat heart
Method: The heart of the rat was excised and perfused with Krebs buffer solution (in mM: NaCl 119, KCl 4.6, MgSO4.7H2O 1.2, CaCl2.2H2O 1.3, NaHCO3 25, KH2PO4 1.2, glucose 11; pH 7.4, 37° C.) according to Langendorff method. A thread attached to the apex of the heart was connected to a tension transducer to determine contractile tension. The heart was perfused with a perfusion solution containing monensin (5 μ M; sodium ionophore) for 10 min and then ischemia was induced by a cessation of coronary flow (for 15 min). After reperfusion for 30 min, the heart was liquefied in nitric acid, and ventricular total calcium content was determined by atomic absorption analysis. Contractile tension was measured during the experiment, and recovery in contractile tension at 30 min of reperfusion related to its pre-value was used as an index of cardiac contraction.

Compound	Calcium Content (10^−6 M)	Calcium Content (10^−7 M)	effect on decreased recovery in contractile tension (in words)	effect on increased ventricular calcium content (in words) (listed as The medicament of the present invention, monohydrate)	effect on increased ventricular calcium content (in words) (listed as the medicament of the present invention, monohydrate)	Calcium Content (10^−5 M)	effect on increased ventricular calcium content (in words)	Calcium Content (10^−3 M)	Calcium Content (10^−4 M)
Cc1ccc(N2CCNCC2)c(S(=O)(=O)O)c1.O [Compound of the Present Invention, 5-methyl-2-(1-piperazinyl)benzenesulfonic acid monohydrate]	2.72 ± 0.18 µmol/g	3.72 ± 0.16 µmol/g	improved	improved	effective in reducing increase in ventricular calcium content				
COc1ccc([C@@H]2Sc3ccccc3N(CCN(C)C)C(=O)[C@@H]2OC(C)=O)cc1 [Diltiazem]	5.75 ± 0.16 µmol/g		failed to exhibit these effects			5.89 ± 0.22 µmol/g	failed to exhibit these effects		
N=C(N)NC(=O)c1nc(Cl)c(N)nc1N [Amiloride]			failed to exhibit these effects				failed to exhibit these effects	4.26 ± 0.40 µmol/g	5.30 ± 0.25 µmol/g
